Read-outs that look alike come from different tables or passages of the source.
Target: T1, mGluR2 receptor (metabotropic glutamate receptor 2) (Homo sapiens, UniProt Q14416)
T1 construct: expressed in transfected cells
Assay: mGluR2 Potentiator Screen, FLIPR, EC10-EC20 glutamate challenge
Format: cell-based
Experimental: Procedure for mGluR2 Potentiator Screen NLB methods EC10-EC20 Challenge Cell Culture and Plating:
Cells used for this screen are HEK cells stably transfected with the mGluR2 receptor (metabotropic glutamate receptor 2) and the Gα15 G protein. Clones were identified by functional activity (FLIPR). Cells are grown in growth media containing: DMEM High Glucose with Glutamine and Na Pyruvate (GIBCO), 10% (v/v) Heat inactivate FBS (GIBCO), G418 500 ug/ml (from 50 mg/ml stock) (GIBCO) and Blasticidin 3 ug/ml (from 5 mg/ml stock made in H2O) (Invitrogen).
2 days before the assay cell are trypsinized with 0.25% trysin/EDTA (GIBCO), spun down at 1000 rpm for 5 minutes, resuspended in growth media and plated on polystyrene 384 well black wall 1 clear bottom poly-D-lysine coated plates at a density of approximately 18,000 cells/well in a volume of 50 μL per well. One day before the assay the growth media is removed from the plates by flicking, and replaced with media containing DMEM High Glucose without Glutamine and Na Pyruvate (GIBCO) and 10% (v/v) dialyzed FBS (GIBCO). The reason for the removal of glutamine the day before the assay is to minimize the amount of glutamate that will be present during the assay, as endogenous glutarnate released from the cells can reduce the fluorescent response and interfere with the FLIPR screen.
FLIPR Methods and Data Analysis:
On the day of the assay, the FLIPR assay is performed using the following methods.
The pH is adjusted to 7.4 with 1 M NaOH. Prepare a 2 mM (approx.) stock solution of Fluo-4,am (Molecular Probes) dye in DMSO-22 μl DMSO per 50 ug vial (440 μL per 1 mg vial). Make a 1 mM (approx.) flou-4, PA working solution per vial by adding 22 μl of 20% pluronic acid (PA), (Molecular Probes) in DMSO to each 50 ug vial (440 μL per 1 mg vial). Prepare a 250 mM Probenecid (Sigma) stock solution by dissolving 0.71 g into 5 ml 1N NaOH and 5 ml assay buffer (for each liter of assay wash buffer)L Make 4 uM (approx.) dye incubation media by adding […] per 11 ml DMEM high glucose without glutamine (220 ml per 1 mg vial). Add 110 μL probenecid stock per 11 ml (2.5 mM final [concentration]). To the dye media add 3 units/ml of glutamic-pyruvic transaminase (GPT, Sigma) and 3 mM Na Pyruvate. The assay has worked with dye concentrations from 2 uM to 8 uM dye as well. To the assay buffer from drug preparation, add 1.83 mls DMSO and 400 μL 15.8% P104 (from New Leads biology) per liter for final concentrations of 0.18% DMSO and 0.006% P104. To the assay buffer for cell washing, add probenecid in the same manner and concentration that was used for the dye media.
Remove growth media from cell plates by flicking. Add 50 μl/well dye solution. Incubate 1 hour at 37° C. and 5% CO2. Remove dye solution and wash 3 times with assay buffer+probenecid (100 μl probenecid stock per 10 ml buffer), leaving 30 μL/well assay buffer. Wait at least 10-15 minutes. Compounds and agonist challenge additions are performed with the FLIPR. The 1st addition is for test compounds, which are added as 15 μL of 4×[concentration] of potentiator. The second 2nd addition is 15 μL of 4×[concentration] of agonist or challenge. This achieves 1× concentration of all compounds only after 2nd addition. The 1st and 2nd additions are performed separately using the FLIPR, which give 2 different data files. Compounds are pretreated at least 30 minutes before agonist addition,
Results are analyzed by dividing the peak fluorescent value of the FLIPR response by the […] to achieve a ratio response. The ratios are then analyzed by curve fitting programs. […] Maximum values for dose response curves (forced fitting) are derived from standards on the plate.
Compound Preparation and Glutamate Challenge:
Compounds are delivered as 10 mM DMSO stocks or as powders, Powders are solubilized in DMSO at 10 mM (as solubility allows). Compounds are sonicated in a heated water bath (35-40° C.) for at least 20 minutes.

[1] = mGluR2 potentiator screen, FLIPR, EC10-EC20 glutamate challenge

T1 sequence (Q14416 19-872, species assumed): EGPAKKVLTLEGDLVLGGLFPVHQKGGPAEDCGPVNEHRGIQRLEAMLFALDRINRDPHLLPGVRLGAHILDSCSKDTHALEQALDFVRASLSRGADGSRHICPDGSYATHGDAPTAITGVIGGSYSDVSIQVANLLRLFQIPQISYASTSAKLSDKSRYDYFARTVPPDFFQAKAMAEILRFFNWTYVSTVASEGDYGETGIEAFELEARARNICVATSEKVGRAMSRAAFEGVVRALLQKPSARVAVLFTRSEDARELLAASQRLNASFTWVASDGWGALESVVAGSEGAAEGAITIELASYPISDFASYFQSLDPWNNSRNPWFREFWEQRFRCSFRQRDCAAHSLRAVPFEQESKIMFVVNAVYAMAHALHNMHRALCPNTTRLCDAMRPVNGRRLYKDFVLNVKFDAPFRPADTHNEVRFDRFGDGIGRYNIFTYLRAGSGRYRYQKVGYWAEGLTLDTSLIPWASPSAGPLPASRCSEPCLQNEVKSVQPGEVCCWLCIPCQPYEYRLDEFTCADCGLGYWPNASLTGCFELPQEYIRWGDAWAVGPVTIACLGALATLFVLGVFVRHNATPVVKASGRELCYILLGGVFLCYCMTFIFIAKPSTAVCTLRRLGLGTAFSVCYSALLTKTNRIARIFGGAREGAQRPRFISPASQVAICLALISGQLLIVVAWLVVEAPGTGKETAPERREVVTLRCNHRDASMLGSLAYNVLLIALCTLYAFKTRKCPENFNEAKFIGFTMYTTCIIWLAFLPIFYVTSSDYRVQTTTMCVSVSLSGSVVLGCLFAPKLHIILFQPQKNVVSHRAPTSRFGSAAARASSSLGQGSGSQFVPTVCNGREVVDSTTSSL

| EC50 | SMILES | also measured |
| --- | --- | --- |
| 753 nM | C[C@@H]1CN(Cc2nc3ncccc3n2C)CC[C@@H]1c1ccc(F)c(F)c1 (relative stereo) [compound 121] |  |
| > 2710 nM | C[C@@H]1CN(Cc2nc3cnccc3n2C)CC[C@@H]1c1ccc(C(F)(F)F)c(F)c1 (single isomer, unassigned) [compound 184] |  |
| 176 nM | C[C@@H]1CN(Cc2nc3cnccc3n2C)CC[C@@H]1c1ccc(F)c(C(F)(F)F)c1 (relative stereo) [compound 198] |  |
| 122 nM | C[C@@H]1CN(Cc2nc3cnccc3n2C)CC[C@@H]1c1ccc(OC(F)F)cc1F (relative stereo) [compound 199] |  |
| 77.8 nM | CC(C)Oc1ccc([C@H]2CCN(Cc3nc4ncccc4n3C)C[C@H]2C)c(Cl)c1 (single isomer, unassigned) [compound 221] |  |
| 1180 nM | C[C@@H]1CN(Cc2nc3cnccc3n2C)CC[C@@H]1c1ccc(C(F)(F)F)cc1F (single isomer, unassigned) [compound 143] |  |
| 125 nM | C[C@@H]1CN(Cc2nc3cnccc3n2C)CC[C@@H]1c1ccc(OC(F)F)cc1Cl (relative stereo) [compound 202] |  |
| 372 nM | COc1cc(F)ccc1C1CCN(Cc2nc3cnccc3n2C)CC1 [compound 88] |  |
| 469 nM | C[C@@H]1CN(Cc2nc3ncccc3n2C)CC[C@@H]1c1ccc2c(c1)CCO2 (relative stereo) [compound 200] |  |
| 10300 nM | C[C@@H]1CN(Cc2nc3cnccc3n2C)CC[C@@H]1c1ccc(F)cc1F (relative stereo) [compound 125] |  |
| 41.3 nM | C[C@@H]1CN(Cc2nc3ncccc3n2C)CC[C@@H]1c1ccc(C(F)(F)F)c(F)c1 (relative stereo) [compound 147] |  |
| 28.8 nM | C[C@@H]1CN(Cc2nc3ncccc3n2C)CC[C@@H]1c1ccc(Cl)cc1F (single isomer, unassigned) [compound 122] |  |
| 710 nM | Cc1ccc(C2CCN(Cc3nc4ncccc4n3C)CC2)cc1 [compound 104] |  |
| 1050 nM | Cn1c(CN2CCC(c3ccccc3F)CC2)nc2cnccc21 [compound 49] |  |
| 1520 nM | C[C@@H]1CN(Cc2nc3cnccc3n2C)CC[C@@H]1c1ccc(C(F)(F)F)cc1Cl (single isomer, unassigned) [compound 171] |  |

The remaining lines, values behind:

| SMILES | EC50 | also measured |
| --- | --- | --- |
| C[C@@H]1CN(Cc2nc3ncccc3n2C)CC[C@@H]1c1ccc(C(F)(F)F)cc1F (single isomer, unassigned) [compound 138] | < 9.25 nM |  |
| COc1ccc([C@H]2CCN(Cc3nc4cnccc4n3C)C[C@H]2C)c(C(F)(F)F)c1 (relative stereo) [compound 174] | > 1690 nM |  |
| C[C@@H]1CN(Cc2nc3cnccc3n2C)CC[C@@H]1c1ccc(F)cc1OC(F)F (relative stereo) [compound 275] |  | EC50 [1]: 96.5 nM |
| C[C@@H]1CN(Cc2nc3ncccc3n2C)CC[C@@H]1c1ccc(Cl)cc1F (relative stereo) [compound 115] | 19.5 nM |  |
| Cn1c(CN2CCC(c3ccc(C(F)(F)F)cc3)C(O)C2)nc2ncccc21 (stereo not shown) [compound 86] | > 2750 nM |  |
| C[C@@H]1CN(Cc2nc3ncccc3n2C)CC[C@@H]1c1ccc(OC(F)(F)F)cc1Cl (single isomer, unassigned) [compound 256] |  | EC50 [1]: > 704 nM |
| Cc1ccc([C@H]2CCN(Cc3nc4cnccc4n3C)C[C@H]2C)c(Cl)c1 (relative stereo) [compound 209] | 159 nM |  |
| Cc1ccc(C)c(C2CCN(Cc3nc4ncccc4n3C)CC2)c1 [compound 61] | 290 nM |  |
| C[C@@H]1CN(Cc2nc3cnccc3n2C)CC[C@@H]1c1ccccc1F (single isomer, unassigned) [compound 117] | > 359 nM |  |
| COc1cc(OC(F)(F)F)ccc1C1CCN(Cc2nc3cnccc3n2C)CC1 [compound 280] |  | EC50 [1]: 33.9 nM |
| COc1ccc(Cl)cc1C1CCN(Cc2nc3cccnc3n2C)CC1 [compound 44] | > 808 nM |  |
| CC(C)Oc1ccc([C@H]2CCN(Cc3nc4cnccc4n3C)C[C@H]2C)cc1Cl (relative stereo) [compound 193] | 590 nM |  |
| C[C@@H]1CN(Cc2nc3ncccc3n2C)CC[C@@H]1c1ccc(Cl)cc1Cl (single isomer, unassigned) [compound 185] | 64.2 nM |  |
| COc1cc(F)ccc1[C@H]1CCN(Cc2nc3cnccc3n2C)C[C@H]1C (single isomer, unassigned) [compound 259] |  | EC50 [1]: 1460 nM |
| CCOc1ccc(Cl)cc1C1CCN(Cc2nc3ncccc3n2C)CC1 [compound 41] | 4810 nM |  |
| CO[C@@H]1CN(Cc2nc3cnccc3n2C)CC[C@@H]1c1ccc(C(F)(F)F)cc1 (relative stereo) [compound 227] | 606 nM |  |
| Cn1c(CN2CCC(c3ccccc3C(F)(F)F)CC2)nc2cnccc21 [compound 48] | 481 nM |  |

| SMILES | EC50 | also measured |
| --- | --- | --- |
| CC(C)Oc1ccc([C@H]2CCN(Cc3nc4ncccc4n3C)C[C@H]2C)cc1F (relative stereo) [compound 182] | 577 nM |  |
| C[C@@H]1CN(Cc2nc3cnccc3n2C)CC[C@@H]1c1ccc(C(F)(F)F)c(F)c1 (relative stereo) [compound 148] | 71.4 nM |  |
| C[C@@H]1CN(Cc2nc3ncccc3n2C)CC[C@@H]1c1ccc(Cl)cc1Cl (relative stereo) [compound 155] | 22.9 nM |  |
| COc1ccc(C2CCN(Cc3nc4ncccc4n3C)CC2)cc1 [compound 81] | 9770 nM |  |
| C[C@@H]1CN(Cc2nc3cnccc3n2C)CC[C@@H]1c1cc(F)c(F)cc1F (relative stereo) [compound 180] | 762 nM |  |
| Cn1c(CN2CCC(c3ccc(F)cc3)CC2)nc2ncccc21 [compound 67] | 2360 nM |  |
| C[C@@H]1CN(Cc2nc3cnccc3n2C)CC[C@@H]1c1ccc(OC(F)(F)F)cc1F (relative stereo) [compound 146] | 55.5 nM |  |
| C[C@@H]1CN(Cc2nc3cnccc3n2C)CC[C@@H]1c1ccc(F)cc1C(F)(F)F (relative stereo) [compound 258] |  | EC50 [1]: 125 nM |
| Cn1c(CN2CCC(c3ccc(F)cc3F)CC2)nc2cnccc21 [compound 84] | 218 nM |  |
| C[C@@H]1CN(Cc2nc3cnccc3n2C)CC[C@@H]1c1ccc(OC(F)(F)F)cc1Cl (single isomer, unassigned) [compound 253] |  | EC50 [1]: 1820 nM |
| C[C@@H]1CN(Cc2nc3nccc4c3n2CCC4)CC[C@@H]1c1ccc(F)c(Cl)c1 (relative stereo) [Example 128, 2-{[Cis-4-(3-chloro-4-fluorophenyl)-3-methylpiperidin-1-yl]methyl}-5,6-dihydro-4H-imidazo[4,5,1-ij]-1,7-naphthyridine] | 134 nM | EC50 (HEK cells stably transfected with mGluR2 and Gα15, FLIPR (Fluo-4), potentiation of an EC10 to EC20 concentration of glutamate, Table 9): 134 nM |
| C[C@@H]1CN(Cc2nc3ncccc3n2C)CC[C@@H]1c1ccc2c(c1)CCCC2 (relative stereo) [compound 189] | 621 nM |  |
| COc1cc(C(F)(F)F)ccc1[C@H]1CCN(Cc2nc3ncccc3n2C)C[C@H]1C (single isomer, unassigned) [compound 131] | 21.9 nM |  |
| C[C@@H]1CN(Cc2nc3cnccc3n2C)CC[C@@H]1c1ccc(C(F)(F)F)cc1Cl (single isomer, unassigned) [compound 172] | 48.5 nM |  |
| C[C@@H]1CN(Cc2nc3ncccc3n2C)CC[C@@H]1c1ccc(OC(F)F)cc1Cl (single isomer, unassigned) [compound 245] |  | EC50 [1]: 262 nM |
| C[C@@H]1CN(Cc2nc3cnccc3n2C)CC[C@@H]1c1ccc(OC(F)F)cc1Cl (single isomer, unassigned) [compound 246] |  | EC50 [1]: 99.9 nM |
